Measured values: article PMC3789393, “Purification and Characterization of Phenylalanine Ammonia Lyase from Trichosporon cutaneum” (Enzyme Research, 2013)

Tested on: T1, Trichosporon cutaneum phenylalanine ammonia lyase (TcPAL)
T1 construct: gene PAL; extra bands at 67 and 31 kDa; 79 kDa monomer; PAL typically homotetramer
Assay: continuous spectrophotometric assay of trans-cinnamic acid at […] nm
Type: biochemical, Cutaneotrichosporon cutaneum
Settings: 10 mM Tris-HCl pH 8.0, 30 °C; trial 1 of 3 (the trial quoted in abstract)

N[C@@H](Cc1ccccc1)C(=O)O [Phe]
Km: 5 ± 1.1 mM
